Values of other authors in patent US6046167A, “Peptide YY analogs” (University of Cincinnati, priority 1998, dated 2000).

Tested on: rat small intestine
Conditions: voltage clamped preparations of rat small intestine; literature comparison

In the case of “PYY: 36-residue peptide amide isolated originally from porcine intestine [Peptide YY]”, the antisecretory potency is given as “greater antisecretory potency than NPY”.
